The values that follow come from PMC11817060, “Optimizing Therapeutics for Intratumoral Cancer Treatments: Antiproliferative Vanadium Complexes in Glioblastoma” (International Journal of Molecular Sciences, 2025).

The subject of assay [1] is T98G (glioblastoma multiforme) cells. As to the kind of experiment: MTT cell viability assay (72 h), fresh or aged solutions, T98G. The class given is cell-based, human. The note with it: 72 h incubation. How it is done:
(§1) For viability experiments, the cells were seeded in 96-well plates at an initial density of 1.0 × 10^3 (T98G) or 3.0 × 10^3 (SVG p12) viable cells per well in 100 μL medium and left to attach overnight.
(§2) For all cell assays, freshly prepared stock solutions of the V(V) complexes (10 mM in DMSO) were used. […] The same concentration of DMSO was used in the control experiments. Stock solutions of Na3VO4 (10 mM in MilliQ H2O) and cisplatin (1.0 mM in phosphate-buffered saline) were prepared on the day of the experiments. […] The treatment complexes were applied in a series of nine two-fold dilutions, starting from 100 μM V, plus the vehicle control. Each treatment was composed of six replicate wells with cells and two background wells without cells but containing the same compounds. […] (1.0 mg/mL in complete medium), and incubation was continued for 4–6 h. The medium was then removed, the blue formazan crystals were dissolved in 0.10 mL per well of DMSO, and the absorbance at 600 nm was measured with a Victor V3 plate reader.
(Formazan colour is commonly taken as a measure of viable cells.)

The test system of assay [2] is SVG p12 (immortalized non-cancer brain astroglia) cells. As to the kind of experiment: MTT cell viability assay (72 h), fresh or aged solutions, SVG p12. The class given is cell-based, human. Conditions: for IC50: 72 h incubation. How it is done:
as §1, §2

The mark [3] stands for this setting: Homo sapiens, T98G, pre-incubated with medium for 24 h at 310 K before addition to cells (B), read-out: IC50 (T98G), aged solutions (B).

Like-named read-outs stand apart in the source and are kept apart here.

On to `OCCNCC/N=C/c1ccccc1O` [Compound H2SHED, N-(salicylideneaminato)-N′-(2-hydroxyethyl)-1,2-ethanediamine], for which the IC50 in assay [1] (setting [3]) is more than 100 µM.
Take `CC(C)c1cc(O)c(O)c(C(C)C)c1` [DIPCATH2, 3,5-di-iso-propyl-catechol]: the IC50 in assay [1] (setting [3]) stood at 54 ± 8 µM.
As for `CC(C)(C)c1cc(O)c(O)c(C(C)(C)C)c1` [DTBH2, 3,5-di-tert-butylcatechol], in assay [1] (setting [3]), the IC50 amounted to 26 ± 3 µM.
`[Na+].[Na+].[Na+].[O]=[V]([O-])([O-])[O-]` [Na3VO4]: the IC50 in assay [2] (pre-incubated with medium for 24 h at 310 K before addition to cells (B), read-out: IC50 (SVG p12), aged solutions (B)) was 48 ± 4 µM; in assay [1] (pre-incubated with medium for 24 h at 310 K before addition to cells (B), read-out: IC50 (T98G), aged solutions (B)), 40 ± 3 µM. Also, the “Effect of subtoxic V(V) concentrations on cell viability” value in assay [2] (SVG p12, 72 h assay, aged in the medium for 24 h, not observed in T98G) is recorded as “increase in cell viability”.
Take `CC(C)c1cc(C(C)C)c(C(C)C)c(O)c1O` [TIPCATH2, 3,4,6-tri-iso-propyl catechol]: the IC50 in assay [1] (setting [3]) amounted to 54 ± 7 µM.
On to `N.N.[Cl][Pt][Cl]` [cisplatin], for which the IC50 in assay [2] (fresh solutions added to cells within 1 min (A), read-out: IC50 (SVG p12), fresh solutions (A)) was found to be 6.1 ± 0.4 µM; in assay [1] (fresh solutions added to cells within 1 min (A), read-out: IC50 (T98G), fresh solutions (A)), 31 ± 1 µM.

The IC50 is the midpoint of a concentration-inhibition curve.
